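Dose response: 5 concentrations. Exposure: 48 h. Format: 96-well plates. Endpoint: linear interpolation; highest concentration if not reached. Abbreviation: GI50, concentration required for 50% inhibition of growth.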 Calls of active or inactive are those of the source. Cut-off read from the data, not from the text of the source: active = GI50 up to about 1.1 µM and inactive = higher.
Legend:
Assay in all cases: NCI anticancer screen, dose series, 48 h
OVCAR-4 = tested on: OVCAR-4
Hs-578T = tested on: Hs-578T
HOP-62 = tested on: HOP-62
HCT-15 = tested on: HCT-15
TK-10 = tested on: TK-10
A498 = tested on: A498
K562 = tested on: K562
MCF7 = tested on: MCF7
CCRF-CEM = tested on: CCRF-CEM
EKVX = tested on: EKVX
IGROV-1 = tested on: IGROV-1
SF-539 = tested on: SF-539
SK-OV-3 = tested on: SK-OV-3
U-251 = tested on: U-251
OVCAR-8 = tested on: OVCAR-8
OVCAR-5 = tested on: OVCAR-5
M14 = tested on: M14
MOLT-4 = tested on: MOLT-4
NCI-H23 = tested on: NCI-H23
NCI-H226 = tested on: NCI-H226

For `CN(CCNC(=O)c1nn(-c2ccccc2)c2c1Cc1ccccc1-2)CCNC(=O)c1nn(-c2ccccc2)c2c1Cc1ccccc1-2`, the GI50 (OVCAR-4) was 1.82 µM (inactive), the GI50 (Hs-578T) was 1.87 µM (inactive) and the GI50 (HOP-62) was 1.79 µM (inactive). The GI50 (HCT-15) was 1.88 µM, the GI50 (TK-10) was 2.04 µM (inactive) and the GI50 (A498) was 1.84 µM (inactive). For the same compound, the GI50 (K562) was 2.11 µM (inactive), the GI50 (MCF7) was 1.64 µM (inactive) and the GI50 (CCRF-CEM) was 1.77 µM (inactive). The GI50 (EKVX) was 4.44 µM (inactive), the GI50 (IGROV-1) was 1.67 µM (inactive) and the GI50 (SF-539) was 2.17 µM (inactive). For the same compound, the GI50 (SK-OV-3) was 2 µM (inactive), the GI50 (U-251) was 1.71 µM (inactive) and the GI50 (OVCAR-8) was 1.68 µM (inactive). For the same compound, the GI50 (OVCAR-5) was 2.37 µM (inactive), the GI50 (M14) was 1.79 µM (inactive) and the GI50 (MOLT-4) was 3.65 µM (inactive). The GI50 (NCI-H23) was 1.87 µM (inactive).
With `Cn1c2c(c3ccccc31)CCN1C(=O)C34CCCC3CC21S4` (stereo not drawn) the GI50 (OVCAR-4) was > 100 µM (inactive), the GI50 (Hs-578T) was > 100 µM (inactive) and the GI50 (HOP-62) was > 100 µM (inactive). For the same compound, the GI50 (HCT-15) was > 100 µM, the GI50 (TK-10) was > 100 µM (inactive) and the GI50 (A498) was > 100 µM (inactive). The GI50 (K562) was > 100 µM (inactive), the GI50 (NCI-H226) was > 100 µM (inactive) and the GI50 (MCF7) was > 100 µM (inactive). For the same compound, the GI50 (EKVX) was > 100 µM (inactive), the GI50 (IGROV-1) was > 100 µM (inactive) and the GI50 (SF-539) was > 100 µM (inactive). For the same compound, the GI50 (SK-OV-3) was > 100 µM (inactive), the GI50 (U-251) was > 100 µM (inactive) and the GI50 (OVCAR-8) was > 100 µM (inactive). For the same compound, the GI50 (OVCAR-5) was > 100 µM (inactive), the GI50 (M14) was > 100 µM (inactive) and the GI50 (MOLT-4) was > 100 µM (inactive). For the same compound, the GI50 (NCI-H23) was > 100 µM (inactive).
`COC(=O)C(Cc1ccccc1)NS(=O)(=O)c1ccc(-c2c3nc(c(-c4ccc(S(=O)(=O)NC(Cc5ccccc5)C(=O)OC)cc4)c4ccc([nH]4)c(-c4ccc(S(=O)(=O)NC(Cc5ccccc5)C(=O)OC)cc4)c4nc(c(-c5ccc(S(=O)(=O)NC(Cc6ccccc6)C(=O)OC)cc5)c5ccc2[nH]5)C=C4)C=C3)cc1` (stereo not drawn) was tested, and the GI50 (OVCAR-4) was > 100 µM (inactive), the GI50 (Hs-578T) was 17.1 µM (inactive) and the GI50 (HOP-62) was 60.8 µM (inactive). For the same compound, the GI50 (HCT-15) was > 100 µM, the GI50 (TK-10) was > 100 µM (inactive) and the GI50 (A498) was > 100 µM (inactive). For the same compound, the GI50 (K562) was > 100 µM (inactive), the GI50 (MCF7) was > 100 µM (inactive) and the GI50 (CCRF-CEM) was > 100 µM (inactive). For the same compound, the GI50 (EKVX) was > 100 µM (inactive), the GI50 (IGROV-1) was > 100 µM (inactive) and the GI50 (SF-539) was > 100 µM (inactive). For the same compound, the GI50 (SK-OV-3) was > 100 µM (inactive), the GI50 (U-251) was 28.1 µM (inactive) and the GI50 (OVCAR-8) was > 100 µM (inactive). For the same compound, the GI50 (OVCAR-5) was > 100 µM (inactive), the GI50 (M14) was > 100 µM (inactive) and the GI50 (MOLT-4) was > 100 µM (inactive). For the same compound, the GI50 (NCI-H23) was > 100 µM (inactive).
`CC(=O)O[C@H]1C(=O)[C@@]2(C)[C@H]([C@H](OC(=O)C3CCCCC3)[C@]3(O)C[C@H](OC(=O)[C@H](O)[C@@H](NC(=O)OC(C)(C)C)c4ccccc4)C(C)=C1C3(C)C)[C@]1(OC(C)=O)CO[C@@H]1C[C@@H]2O` was tested, and the GI50 (OVCAR-4) was 10.2 µM (inactive), the GI50 (Hs-578T) was 0.00548 µM (active) and the GI50 (HOP-62) was 0.0181 µM (active). For the same compound, the GI50 (HCT-15) was 0.268 µM, the GI50 (TK-10) was 0.151 µM (active) and the GI50 (K562) was 0.00275 µM (active). For the same compound, the GI50 (NCI-H226) was 0.0236 µM (active), the GI50 (MCF7) was 0.00259 µM (active) and the GI50 (CCRF-CEM) was 0.00499 µM (active). For the same compound, the GI50 (EKVX) was > 12.5 µM (inactive), the GI50 (IGROV-1) was 0.00348 µM (active) and the GI50 (SF-539) was 0.00298 µM (active). The GI50 (SK-OV-3) was 0.0151 µM (active), the GI50 (U-251) was 0.0137 µM (active) and the GI50 (OVCAR-8) was 0.0144 µM (active). The GI50 (OVCAR-5) was 0.0074 µM (active), the GI50 (M14) was 0.00724 µM (active) and the GI50 (MOLT-4) was 0.00474 µM (active). The GI50 (NCI-H23) was 0.0261 µM (active).
For `CC(C)(C)OC(=O)c1ccc(NCC2=C(Br)C(=O)C=CC2=O)cc1`, the GI50 (OVCAR-4) was 14.1 µM (inactive), the GI50 (Hs-578T) was 19.1 µM (inactive) and the GI50 (HOP-62) was 37 µM (inactive). For the same compound, the GI50 (HCT-15) was 15.6 µM, the GI50 (TK-10) was 22.1 µM (inactive) and the GI50 (K562) was 11.7 µM (inactive). The GI50 (NCI-H226) was 22.1 µM (inactive), the GI50 (MCF7) was 19.3 µM (inactive) and the GI50 (CCRF-CEM) was 2.42 µM (inactive). The GI50 (EKVX) was 19.7 µM (inactive), the GI50 (IGROV-1) was 24.2 µM (inactive) and the GI50 (SF-539) was 21.5 µM (inactive). The GI50 (SK-OV-3) was > 64.9 µM (inactive), the GI50 (U-251) was 22.3 µM (inactive) and the GI50 (OVCAR-8) was 16.5 µM (inactive). For the same compound, the GI50 (OVCAR-5) was 23.1 µM (inactive), the GI50 (M14) was 27.5 µM (inactive) and the GI50 (MOLT-4) was 1.42 µM (inactive). The GI50 (NCI-H23) was 19.6 µM (inactive).
In the case of `C[C@H](CCC(=O)O)[C@H]1CC[C@H]2[C@@H]3C(=O)C[C@@H]4C[C@H](O)CC[C@]4(C)[C@H]3C[C@H](O)[C@]12C`, the GI50 (OVCAR-4) is reported as > 100 µM (inactive), the GI50 (Hs-578T) is reported as < 0.01 µM (active) and the GI50 (HOP-62) is reported as > 100 µM (inactive). The GI50 (HCT-15) was > 100 µM, the GI50 (TK-10) was > 100 µM (inactive) and the GI50 (A498) was > 100 µM (inactive). For the same compound, the GI50 (K562) was > 100 µM (inactive), the GI50 (NCI-H226) was > 100 µM (inactive) and the GI50 (MCF7) was > 100 µM (inactive). For the same compound, the GI50 (CCRF-CEM) was > 100 µM (inactive), the GI50 (EKVX) was > 100 µM (inactive) and the GI50 (IGROV-1) was > 100 µM (inactive). The GI50 (SF-539) was > 100 µM (inactive), the GI50 (U-251) was > 100 µM (inactive) and the GI50 (OVCAR-8) was > 100 µM (inactive). For the same compound, the GI50 (OVCAR-5) was > 100 µM (inactive), the GI50 (M14) was > 100 µM (inactive) and the GI50 (MOLT-4) was > 100 µM (inactive). The GI50 (NCI-H23) was > 100 µM (inactive).
With `CO[C@H]1C[C@H](O[C@H]2CC[C@]3(C=O)[C@H]4CC[C@]5(C)[C@@H](C6=CC(=O)OC6)CC[C@]5(O)[C@@H]4CC[C@]3(O)C2)O[C@H](C)[C@H]1O` [CYMARIN] the GI50 (OVCAR-4) was 0.107 µM (active), the GI50 (Hs-578T) was 0.525 µM (active) and the GI50 (HOP-62) was 0.114 µM (active). For the same compound, the GI50 (HCT-15) was 0.192 µM, the GI50 (TK-10) was 0.167 µM (active) and the GI50 (A498) was 0.294 µM (active). The GI50 (K562) was 0.184 µM (active), the GI50 (NCI-H226) was 0.54 µM (active) and the GI50 (MCF7) was 0.463 µM (active). The GI50 (EKVX) was 0.175 µM (active), the GI50 (IGROV-1) was 0.448 µM (active) and the GI50 (SF-539) was 0.0809 µM (active). For the same compound, the GI50 (SK-OV-3) was 0.114 µM (active), the GI50 (U-251) was 0.314 µM (active) and the GI50 (OVCAR-8) was 0.307 µM (active). The GI50 (OVCAR-5) was 0.478 µM (active), the GI50 (M14) was 0.528 µM (active) and the GI50 (MOLT-4) was 0.0883 µM (active). For the same compound, the GI50 (NCI-H23) was 0.157 µM (active).

Source: ChEMBL document CHEMBL1201862, “PubChem BioAssay data set” (2004)
